# Data taken from paper PMC6541264, “Molecular mechanisms involved in drug-induced liver injury caused by urate-lowering Chinese herbs: A network pharmacology study and biology experiments” (PLoS ONE, 2019).
# Columns and labels:
# Type in all cases: cell-based, human
# L-02 cells [1] = assay: Biochemical indicators of hepatotoxicity (ALT, AST, LDH, ALP activity) of L-02 cells, without and with p38 inhibitor SB203580
# Protocol: (§1) The normal hepatic cell (L02) cell lines were obtained from the National Infrastructure of Cell Line Resources (Chinese Academy of Medical Sciences, Beijing, China), and maintained in Dulbecco’s modified Eagle’s medium (DMEM, 10-013-CVR) supplemented with 10% fetal bovine serum (FBS, Hyclone), 1% penicillin and streptomycin (PS, 100 IU/ml penicillin, 100 μg/ml streptomycin, Mediatech, 30-002-CI). All cells were incubated in a humidified atmosphere at 37°C with 5% CO2.
# To determine how potential liver injury-compounds affected biochemical indicators of L-02 cells, we investigated the activities of AST, ALT, LDH and ALP in cell migration capacity under the different representative compounds conditions (representative compounds group), the inhibitor conditions (inhibitor group), and the negative control. For these experiments, three replicates were made for each concentration of the different representative compounds with liver injury, and each group was established three holes and cultured in 6 times repeatedly. […] Subsequently, the supernatant extraction of L02 cells was collected and centrifuged to detect the activities of AST, ALT, LDH, and ALP by chromatometry method.
# To further and fully elucidating the mechanism of the liver injury caused by the representative compounds from urate-lowering Chinese herbs, we chose the p38α inhibitor, SB203580 to verify our findings. […] The specific composition information was shown in S2 Table. […] The Specific specific composition information is was shown in S4 Table.
# p38α = assay: Western blot, expression of p-p38α/p38α in L-02 cells, without and with inhibitor SB203580
# Excerpt: After the examination of biochemical indicators for hepatotoxicity in the cell, the expression of crucial liver injury protein in L02 cell lines among different groups was compared by Western blot analysis. Briefly, the proteins from different groups were harvested and lysed using lysis buffer (Sigma-Aldrich) containing a proteinase inhibitor cocktail (Sigma-Aldrich), the equal amounts of protein were separated by electrophoresis on a pre-cast 10% SDS-polyacrylamide gel (Bio-Rad, Hercules, CA) and transferred to polyvinylidene difluoride membranes (Millipore, Bedford, MA). Next, the membrane was blocked in TBST-T containing 5% skim milk for 2 h at room temperature and probed with anti-beta-catenin, and incubated overnight with the indicated primary antibody, followed by incubation with the secondary antibodies at room temperature for another 2 h. Finally, all the immune blots were visualized by enhanced chemiluminescence (Pierce Biotechnology, Inc., Rockford, IL, USA) and western blots were performed at least three times.
# According to the results of network pharmacology, we examined the expression levels of p38α. […] The Specific specific composition information is was shown in S3 Table. […] However, the mechanism of saikosaponin D causing liver injury still remained unclear.
# To further and fully elucidating the mechanism of the liver injury caused by the representative compounds from urate-lowering Chinese herbs, we chose the p38α inhibitor, SB203580 to verify our findings. Seemingly, the ALT, AST, ALP, and LDH activities of each group decreased to varying degrees under the influence of inhibitor. The specific composition information was shown in S2 Table. […] The Specific specific composition information is was shown in S4 Table.
# [2] = MTT assay, cell viability of L-02 cells; details: human, L-02 (L02) normal hepatic cells, L-02, MTT, 24 h, read-out: cells viabilityrate
# Protocol: as §1
# (§2) L-02 cells were trypsinized by 0.25% trypsin after reaching the confluence of 70–80% and plated in 96-well plates at the density of 1.6 × 10^3 […]. And L-02 cells were cultured for 24 hours in vitro before exposure to varying concentrations of different representative compounds with liver injury for further incubating in another 24 hours. Then, 20 μl of 0.25 mg/ml3-(4,5-dimethylthiazol-2-yl)-2,5-diphenyltetrazolium bromide (MTT)-tetrazolium salts (Sigma-Aldrich Corp., St. Louis, MO, USA) in PBS was added to each hole in 96-well plates. After 4 hours of incubation, the formazan crystals were dissolved by 150μl Dimethyl Sulphoxide (DMSO), and shocked to dissolve thoroughly, then the cell viability was measured by MTT method at 570 nm. All experiments were repeated in triplicate independently.
# L-02 cells [3] = assay: MTT assay, cell viability of L-02 cells; details: dose of 60–90 μmol/L
# Protocol: as §1, §2
# [4] = Table 5, L-02 supernatant, 24 h, 40μmol/L
# [5] = Table 5, L-02 supernatant, 24 h, 60μmol/L
# [6] = Table 5, L-02 supernatant, 24 h, 80μmol/L
molecule,measurement,setting,value
"C[S+]([O-])c1ccc(-c2nc(-c3ccncc3)c(-c3ccc(F)cc3)[nH]2)cc1 (stereo not shown) [SB203580, reference compound]","effect on component-induced cell damage of L-02 cells, in words",L-02 cells [1]; SB203580 at the dose of 20μmol/L added to components,attenuate the component-induced cell damage
COc1ccc2cc1Oc1ccc(cc1)C[C@H]1c3cc(c(OC)cc3CCN1C)Oc1c(OC)c(OC)cc3c1[C@H](C2)N(C)CC3 [Tetrandrine],p-p38α/p38α,"p38α; S3 Table, L-02, 24 hours of incubation, 40μmol/L",1.03±0.29
same,p-p38α/p38α,"p38α; S3 Table, L-02, 24 hours of incubation, 60μmol/L",0.98±0.14
same,p-p38α/p38α,"p38α; S3 Table, L-02, 24 hours of incubation, 80μmol/L",1.26±0.52
same,p-p38α/p38α,"p38α; S4 Table, L-02, 24 hours, 40μmol/L+inhibitor (SB203580)",0.81±0.03
same,p-p38α/p38α,"p38α; S4 Table, L-02, 24 hours, 40μmol/L, no inhibitor",0.97±0.03
same,p-p38α/p38α,"p38α; S4 Table, L-02, 24 hours, 60μmol/L+inhibitor (SB203580)",0.98±0.17
same,p-p38α/p38α,"p38α; S4 Table, L-02, 24 hours, 60μmol/L, no inhibitor",0.79±0.24
same,p-p38α/p38α,"p38α; S4 Table, L-02, 24 hours, 80μmol/L+inhibitor (SB203580)",1.28±0.26
same,p-p38α/p38α,"p38α; S4 Table, L-02, 24 hours, 80μmol/L, no inhibitor",1.17±0.07
same,ALT,"L-02 cells [1]; S2 Table, L-02, 40μmol/L, no inhibitor",16.55± 0.71 U/L
same,AST,"L-02 cells [1]; S2 Table, L-02, 60μmol/L, no inhibitor",5.64± 0.56 U/L
same,ALP,L-02 cells [1]; [4],16.55±0.71 ^*^Δ King's unit /100ml
same,ALT,L-02 cells [1]; [4],4.36±0.35 U/L
same,AST,L-02 cells [1]; [4],713.48±49.44 ^*^Δ U/L
same,LDH,L-02 cells [1]; [4],0.79±0.08 U/L
same,ALT,L-02 cells [1]; [5],5.01±1.20 U/L
same,AST,L-02 cells [1]; [5],705.81±98.97^Δ U/L
same,LDH,L-02 cells [1]; [5],0.82±0.16 U/L
same,ALP,L-02 cells [1]; [6],17.45±0.35 ^**^ΔΔ King's unit /100ml
same,ALT,L-02 cells [1]; [6],4.84±0.86 U/L
same,AST,L-02 cells [1]; [6],736.08±77.41 ^*^Δ U/L
same,LDH,L-02 cells [1]; [6],0.93±0.07 U/L
same,"viability at 24 h, 40 μmol/L",[2]; 40 μmol/L,101 ± 9.72%
same,"viability at 24 h, 60 μmol/L",[2]; 60 μmol/L,91.8 ± 4.63%
same,"viability at 24 h, 80 μmol/L",[2]; 80 μmol/L,83.3 ± 5.22%
same,"cell survival rate, in words",L-02 cells [3],lower cell survival rate
Evodiamine,"ratios of p-p38α/p38α expression compared with the blank groups, in words","p38α; L-02, 10μmol/L diosgein, 2000μmol/L baicalin, 60μmol/L terandrine, 6μmol/L evodiamine",increased
same,p-p38α/p38α,"p38α; S3 Table, L-02, 24 hours of incubation, 5μmol/L",1.13±0.33
same,p-p38α/p38α,"p38α; S3 Table, L-02, 24 hours of incubation, 6μmol/L",1.39±0.34
same,p-p38α/p38α,"p38α; S3 Table, L-02, 24 hours of incubation, 7μmol/L",1.03±0.48
same,p-p38α/p38α,"p38α; S4 Table, L-02, 24 hours, 5μmol/L+inhibitor (SB203580)",0.82±0.02
same,p-p38α/p38α,"p38α; S4 Table, L-02, 24 hours, 5μmol/L, no inhibitor",1.74±0.42
same,p-p38α/p38α,"p38α; S4 Table, L-02, 24 hours, 10μmol/L+inhibitor (SB203580)",0.47±0.03
same,p-p38α/p38α,"p38α; S4 Table, L-02, 24 hours, 10μmol/L, no inhibitor",1.45±0.29
same,p-p38α/p38α,"p38α; S4 Table, L-02, 24 hours, 15μmol/L+inhibitor (SB203580)",0.91±0.22
same,p-p38α/p38α,"p38α; S4 Table, L-02, 24 hours, 15μmol/L, no inhibitor",1.39±0.77
